Earlier results as cited in patent US6132766A, “Multivesicular liposomes with controlled release of encapsulated biologically active substances” (priority 1998, dated 2000).

How the values were obtained:
[1] = unencapsulated drug; about
[2] = system: strains of both gram negative and gram positive bacteria; details: background statement

## NCC[C@H](O)C(=O)N[C@@H]1C[C@H](N)[C@@H](O[C@H]2O[C@H](CN)[C@@H](O)[C@H](O)[C@H]2O)[C@H](O)[C@H]1O[C@H]1O[C@H](CO)[C@@H](O)[C@H](N)[C@H]1O [amikacin]
[1]
  serum half-life: two to three
[2]
  activity against strains of both gram negative and gram positive bacteria: clinically significant activity
